In patent US11226337B2, “Chemoproteomic profiling of protein electrophilic and oxidative post-translational modifications” (Zenagem, LLC, priority 2017, dated 2022):

Assays:
Type in all cases: cell-based
AMD1 = target: T1, AMD1 (Homo sapiens, UniProt P17707); assay: gel-based RP-ABPP of transfected HEK293T cells; conditions: transfected HEK293T cells vs mock
T1 construct: Full-length genes encoding three probe 1- and one probe 2-targeted proteins were amplified from a cDNA library; expressed in transfected cells; host or cells: HEK293T
T1 sequence (P17707 68-334 limits assumed): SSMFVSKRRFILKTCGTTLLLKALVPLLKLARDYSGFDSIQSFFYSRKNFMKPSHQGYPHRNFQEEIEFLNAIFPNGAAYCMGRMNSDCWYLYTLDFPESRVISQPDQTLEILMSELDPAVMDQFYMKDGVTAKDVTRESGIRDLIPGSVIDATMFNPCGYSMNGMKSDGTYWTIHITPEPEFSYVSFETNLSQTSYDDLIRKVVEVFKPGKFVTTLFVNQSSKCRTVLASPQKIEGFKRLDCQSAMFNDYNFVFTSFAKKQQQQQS
T1 sequence (P17707 1-67 limits assumed): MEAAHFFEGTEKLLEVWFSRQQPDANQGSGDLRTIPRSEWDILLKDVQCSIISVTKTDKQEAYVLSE

[1] = target: T2, SCRN3 Secernin-3 (Q0VDG4) (Homo sapiens, UniProt Q0VDG4); assay: SILAC RP-ABPP; conditions: SILAC H/L, HEK293T
T2 construct: shared by both the endogenous and recombinant forms of these proteins; endogenous in cells; host or cells: HEK293T and MDA-MB-231
T2 sequence (Q0VDG4 6-424): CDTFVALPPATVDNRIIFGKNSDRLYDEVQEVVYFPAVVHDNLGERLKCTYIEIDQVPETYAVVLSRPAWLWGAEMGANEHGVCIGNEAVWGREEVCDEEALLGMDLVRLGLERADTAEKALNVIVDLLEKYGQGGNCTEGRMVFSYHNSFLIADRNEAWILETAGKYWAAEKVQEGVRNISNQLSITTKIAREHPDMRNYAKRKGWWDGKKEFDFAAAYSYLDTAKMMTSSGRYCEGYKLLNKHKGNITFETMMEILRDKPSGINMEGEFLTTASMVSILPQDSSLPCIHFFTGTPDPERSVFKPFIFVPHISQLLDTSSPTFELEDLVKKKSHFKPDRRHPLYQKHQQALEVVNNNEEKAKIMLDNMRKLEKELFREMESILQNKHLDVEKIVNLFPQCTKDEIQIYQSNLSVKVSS
Protocol: (§1) Modifications to this protocol included using isotopically ‘light’ and ‘heavy’ SILAC cells that were also grown to near complete confluence prior to treatment. Isotopically light cells were treated with the non-clickable hydrazine probe (at the same concentration as the probe in ‘enrichment’ experiments) or the probe in the presence of 10-fold excess non-clickable hydrazine probe as a competitor (in ‘competition’ experiments). Isotopically heavy cells were treated with the probe for both types of experiments. These treatments were performed in non-SILAC media. Following treatments, cells were washed with cold PBS to remove the probe-containing media, harvested by scraping, collected by centrifugation (1,400 g, 3 min, 4° C.), washed again by resuspension in cold PBS and frozen as pellets at −80° C. until use.
(§2) The fractionated equimolar mixture of heavy and light soluble proteomes (1-1.5 mg) was diluted to 1 mL in PBS. Click reactions were scaled accordingly (except for biotin-azide) to maintain final concentrations of 0.1 mM TBTA, 1 mM CuSO4, 100 μM biotin-azide (10 mM in DMSO) and 1 mM TCEP. The mixture was vortexed and placed on a rotator at ambient temperature for 1 hour. Sequential addition of and mixture with pre-chilled methanol (MeOH, 2 mL), chloroform (CHCl3, 0.5 mL) and PBS (1 mL) on ice quenched the reaction. The precipitated proteome was centrifuged (5,000 g, 10 min, 4° C.) to fractionate the protein interphase from the organic and aqueous solvent layers. The protein pellet was washed with cold 1:1 MeOH:CHCl3 (3×1 mL), mildly sonicated in cold 4:1 MeOH:CHCl3 (2.5 mL) and pelleted once more by centrifugation (5,000 g, 10 min, 4° C.) to ensure click reagents were efficiently removed.
(§3) Heavy and light parent ion chromatograms associated with successfully identified peptides were extracted and compared using CIMAGE software as previously described^69. At least one ion of a co-eluting heavy-light pair must be accurately identified from a fragmentation event that occurred within the retention time window (±10 min) of parent ion elution. To ensure that the correct pair of peaks is quantified, chromatograms are extracted within a 10 ppm error tolerance of the predicted m/z, the signal-to-noise ratio must be >2.5 and the ‘co-elution correlation score’ and ‘envelope correlation score’ must have R^2 values ≥0.8. In addition, peptides detected as ‘singletons,’ where only the heavy ion of a peptide pair was identified, but for which passed all other filtering parameters, are given a default assigned ratio of ‘20,’ which is defined as any measured ratio that is ≥20.
(§4) To further eliminate false positives and any stochastic variability in the data, protein ratios were then determined by the median peptide ratio derived from three or more unique quantified peptides. Protein ratios that complied with these criteria from a single experiment were then averaged with ratios acquired from ≥3 replicates to provide final values for each type of experiment in both cell lines with both probes. […] Probe targets in HEK293T and MDA-MB-231 cells represent data combined from ≥3 independent biological replicates with each cell type performed with several independent batches of synthesized probes over a period of almost two years.
(§5) Two types of experiments were performed—1) direct enrichment of probe 1-labelled proteins from heavy cells in comparison to light control cells treated with the non-clickable hydrazine (3) at the same concentration as 1 (3 mM for 0.5 h); and 2) competition experiments where both heavy and light cells were treated probe 1, but light cells were also treated with 10× competitor 3 (FIG. 3A)—in two different human cell lines (HEK293T cells and the human breast cancer cell line MDA-MB-231).

LGMN Legumain (Q99538) = target: T3, LGMN Legumain (Q99538) (Homo sapiens, UniProt Q99538); assay: SILAC RP-ABPP; conditions: SILAC H/L
T3 construct: shared by both the endogenous and recombinant forms of these proteins; endogenous in cells; host or cells: HEK293T and MDA-MB-231
T3 sequence (Q99538 18-323): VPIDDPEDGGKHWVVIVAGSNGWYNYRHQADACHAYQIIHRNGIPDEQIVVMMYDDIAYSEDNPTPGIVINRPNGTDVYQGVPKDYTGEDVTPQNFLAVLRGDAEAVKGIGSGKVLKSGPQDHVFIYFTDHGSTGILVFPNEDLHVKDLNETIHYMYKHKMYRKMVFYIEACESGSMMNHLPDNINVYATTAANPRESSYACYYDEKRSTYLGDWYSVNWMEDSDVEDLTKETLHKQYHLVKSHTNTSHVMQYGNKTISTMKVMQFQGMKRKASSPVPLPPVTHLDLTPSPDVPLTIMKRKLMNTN
Protocol: as §1, §2, §3, §4, §5

[2] = target: T4, AMD1 S-adenosylmethionine decarboxylase (P17707) (Homo sapiens, UniProt P17707); assay: SILAC RP-ABPP; conditions: SILAC H/L, HEK293T
T4 construct: shared by both the endogenous and recombinant forms of these proteins; endogenous in cells; host or cells: HEK293T and MDA-MB-231
T4 sequence (P17707 68-334 limits assumed): T1 sequence (P17707 68-334 limits assumed)
T4 sequence (P17707 1-67 limits assumed): T1 sequence (P17707 1-67 limits assumed)
Protocol: as §1, §2, §3, §4, §5

[3] = target: T5, SCRN2 Secernin-2 (Q96FV2) (Homo sapiens, UniProt Q96FV2); assay: SILAC RP-ABPP; conditions: SILAC H/L, HEK293T
T5 construct: shared by both the endogenous and recombinant forms of these proteins; endogenous in cells; host or cells: HEK293T and MDA-MB-231
Protocol: as §1, §2, §3, §4, §5

SMILES	probe labeling of recombinant protein, in-gel fluorescence (AMD1)	enrichment ratioavg ([1]; probe 1 3 mM 0.5 h vs probe 3)	competition ratioavg ([1]; probe 1 vs probe 1+10x probe 3)	enrichment ratioavg (LGMN Legumain (Q99538); probe 1 3 mM 0.5 h vs probe 3, HEK293T)	competition ratioavg (LGMN Legumain (Q99538); probe 1 vs probe 1+10x probe 3, HEK293T)	enrichment ratioavg ([2]; probe 1 3 mM 0.5 h vs probe 3)	competition ratioavg ([2]; probe 1 vs probe 1+10x probe 3)	enrichment ratioavg ([3]; probe 1 3 mM 0.5 h vs probe 3)	competition ratioavg ([3]; probe 1 vs probe 1+10x probe 3)	enrichment ratioavg ([1]; probe 2 1 mM 0.5 h vs probe 4)	competition ratioavg ([1]; probe 2 vs probe 2+10x probe 4)	enrichment ratioavg (LGMN Legumain (Q99538); probe 2 1 mM 0.5 h vs probe 4, MDA-MB-231)	competition ratioavg (LGMN Legumain (Q99538); probe 2 vs probe 2+10x probe 4, MDA-MB-231)	enrichment ratioavg ([2]; probe 2 1 mM 0.5 h vs probe 4)	competition ratioavg ([2]; probe 2 vs probe 2+10x probe 4)	enrichment ratioavg ([3]; probe 2 1 mM 0.5 h vs probe 4)	competition ratioavg ([3]; probe 2 vs probe 2+10x probe 4)
C#CCNN.Cl [probe 1, prop-2-yn-1-ylhydrazine hydrochloride]	reacted with both probes 1 and 2	20	6	20	18	20	5	20	9	–	–	–	–	–	–	–	–
C#CCCNC(=O)c1ccc(NN)cc1.Cl [probe 2, N-(but-3-yn-1-yl)-4-hydrazinylbenzamide hydrochloride]	reacted with both probes 1 and 2	–	–	–	–	–	–	–	–	15	16	20	4	20	6	20	13
